“Also recorded” adds a separate entry of the source.
Legend:
FTO [1] = target: T1, FTO (Homo sapiens, UniProt Q9C0B1); details: reported (ref. 36); stated as selectivity against ALKBH5; cited from earlier work
T1 construct: SUMO (N); His10 (N); made in house; host or cells: E. coli BL21

[2] = QikProp calculation of clogP and membrane permeability (Caco-2, MDCK models); details: predicted permeability models; fold
Protocol: In order to identify chemically distinct inhibitors of FTO, we used a combination of structure-based drug design and molecular docking with the Schrödinger software suite to target the MA binding site of FTO. […] Interactions with these four residues were considered highly favorable. […] Docking poses for FTO-1-20 are in the supporting information (FIGS. 32-51). Hits showing promising docking scores (absolute value ≥7) were also analyzed by QikProp to assess their physicochemical properties. As existing FTO inhibitors fail to progress to clinical applications due to poor pharmacokinetic profiles, it was important to filter our screen for compounds with more favorable physicochemical properties. […] These criteria were selected due to multiple studies indicating compounds with low molecular weight and moderate lipophilicity are more likely to show favorable adsorption and clearance rates, and less toxicity due to target promiscuity. As such, controlling the physicochemical properties of inhibitors during the initial screening stages should select for better leads for future optimization and development. Based on these criteria, the top 20 inhibitors were selected for synthesis (Table S1). These parameters were also calculated for MA, FB23-2 and its precursor FB23 (Table S2). […]

MONOMAC6 and NB4 cells = details: fold, Huang et. al; cited from earlier work
[3] = tested on: human neural stem cells (hNSC); assay: Neurosphere formation assay, healthy neural stem cells; assay type: cell-based; details: healthy neural stem cells (hNSCs), 20 μM; listed as FTO-04
Protocol: (§1) To understand the effects of our FTO inhibitors on the self-renewal properties of GSCs, tumorospheres cultured from the patient-derived GSC line TS576 were treated with 30 μM of FTO-04, FTO-10, FTO-11, or FTO-12 (FIG. 29A-29B; cell line gifted from the Furnari lab).^45, 46 The GSCs were cultured in sphere-forming assays for 24 hours, then treated with either inhibitors or DMSO control for 2 days. The size of the tumorospheres was calculated using ImageJ.
(§2) Early passaged GSCs were used to understand the efficacy of ALK-04 on the self-renewal capacity of GSCs by tumorsphere-formation assay as described earlier^10, 11. In brief, GSCs were seeded at 4×10^4 cells in 24 well plate and cultured for 3 days followed by treatment with ALK-04 inhibitors at 20 μM daily for 3 days. After 3 days of treatment the images of the tumorospheres were imaged with phase contrast microscope and size was measured with Image J, to understand the effects of drugs on the self-renewal of GSCs on sphere formation. This process was also repeated for healthy neural stem cells (hNSCs) treated daily with 20 μM ALK-04 for three days to assess the therapeutic ratio.

FTO [4] = target: T1, FTO; assay: Fluorescence enzymatic inhibition assay (m6A7-Broccoli / DFHBI-1T), FTO; assay type: biochemical; details: fold more potent than MA (IC50=12.5)
Protocol: In order to determine their efficacy as FTO inhibitors, the compounds were screened by a fluorescence enzymatic inhibition assay developed previously by the Jaffrey lab.^44 Briefly, a nonfluorescent methylated RNA substrate termed “m6A7-Broccoli” is incubated with FTO in the presence of 2-oxoglutarate (300 μM), (NH4)2Fe(SO4)2·6H2O (300 μM), and L-ascorbate (2 mM) for 2 hours at room temperature in reaction buffer (50 mM NaHEPES, pH 6).
E. coli BL21 competent cells (New England Biolabs) were transformed with pET28-SUMO-His10-FTO plasmid (a generous gift from the Jaffrey lab) by heat shock and spread on a LB Kanamycin agar plate, then incubated overnight at 37° C. 2-3 colonies were picked and transferred to 5 mL of LB media treated with kanamycin (0.5 mg mL^−1 final concentration), then grown overnight shaking at 37° C. The overnight culture was then transferred to 2 L of LB kanamycin media and incubated at 37° C. until OD 0.8. The culture was cooled at 4° C. for 20 mins and induced with 0.5 mM isopropyl β-D-1-thiogalactopyranoside (IPTG), then grown shaken at 16° C. Cell pellets were collected by centrifugation (5,000 g for 10 min at 4° C.) and the supernatant was discarded. The pellets were resuspended in B-PER Bacterial Protein Extraction Reagent (6 mL per gram) with DNase 1 (5 U per mL, RNase-free) and incubated at 4° C. for 1 hour. The suspension was centrifuged at 10,000 g for 20 min and the supernatant was transferred to a Talon Metal Affinity Resin column that had been pre-equilibrized with binding buffer (50 mM NaH2PO4 pH 7.2, 300 mM NaCl, 20 mM imidazole, 1 mM β-mercaptoethanol in RNase-free water). […] The eluant was combined and transferred to a Slyde-A-Lyzer Dialysis Cassette (20,000 MWCO, Thermo Scientific) and dialyzed overnight at 4° C. against dialysis buffer (50 mM Tris-HCl pH 7.4, 100 mM NaCl, 5 mM B-mercaptoethanol, 5% (v/v) glycerol in RNase-free water). […] ALKBH5 was expressed and purified from pET28-SUMO-His10-ALKBH5 plasmid by the same procedure described above.
Inhibitors were added in concentrations ranging from 0.008-40 μM; all inhibitors were dissolved in DMSO and added to a final concentration of 0.2% DMSO. […] After incubation at room temperature for 2 hours, the plates were left at 4° C. overnight (16 hours) to allow DFHBI-1T to bind to A7-Broccoli RNA. […] Sigmoidal dose-response curves were fitted in GraphPad Prism 6. All assays were performed in triplicate, with additional repetitions added as necessary.

[5] = tested on: m6A mRNA levels in TS576 cells; assay: m6A dot blot assay on poly(A)+ mRNA; assay type: cell-based, human; details: vs DMSO control, does not distinguish m6A and m6Am
Protocol: Next, we sought to determine if FTO-04 was able to alter m6A levels in purified mRNA from GSCs by m6A dot blot assay. TS576 cells were treated with 2, 10, and 50 ng shControl or shFTO to establish the relative change in m6A mRNA levels due to FTO knockdown. […] TS576 cells were then treated with 2, 10, and 50 ng of either DMSO or FTO-04 (FIG. 59B).
Polyadenylated mRNA were isolated from TS576 cells treated with either DMSO, FTO-04 (30 μM), and control (shControl) or FTO lentivirus (shFTO) knockdown samples by using Magnetic mRNA Isolation Kit (New England Biolabs, S1550S). Isolated mRNA was quantified, serially diluted and denatured at 95° C. for 3 min, then chilled on ice to prevent reformation of secondary structure of mRNA. Denatured mRNA samples were spotted on an Amersham Hybond-N^+ membrane (GE Healthcare, RPN3050B) and cross-linked to the membrane with UV radiation. After crosslinking the membrane was washed with phosphate buffer saline with 0.1% tween-20 (PBST) and blocked in 5% of non-fat milk in PBST buffer, and then incubated with anti-m^6A antibody (1:1000; abcam) overnight at 4° C. The membrane was then washed as before and incubated in HRP-conjugated secondary antibodies for 1 h at room temperature. The membrane was then developed with Thermo ECL SuperSignal West Femto Maximum Sensitivity Substrate (Thermo Fisher Scientific).

[6] = tested on: TS576 glioblastoma stem cells; assay: Tumorosphere (neurosphere) formation assay, TS576; assay type: cell-based, human; details: 2 days
Protocol: as §1, §2

FTO [7] = target: T1, FTO; assay: Steady-state (Michaelis-Menten) inhibition kinetics, FTO; assay type: biochemical; details: velocity and double-reciprocal plots; 0-40 μM inhibitor, 0-10 μM substrate; listed as FTO-04
GBM-GSC-23 = assay: Tumorosphere (neurosphere) formation assay, GBM-GSC-23; assay type: cell-based, human; details: 20 μM, 2 days, listed as FTO-04
GBM-6 = assay: Tumorosphere (neurosphere) formation assay, GBM-6; assay type: cell-based, human; details: GBM-6, 20 μM, 2 days; listed as FTO-04

T1 sequence (Q9C0B1 whole entry): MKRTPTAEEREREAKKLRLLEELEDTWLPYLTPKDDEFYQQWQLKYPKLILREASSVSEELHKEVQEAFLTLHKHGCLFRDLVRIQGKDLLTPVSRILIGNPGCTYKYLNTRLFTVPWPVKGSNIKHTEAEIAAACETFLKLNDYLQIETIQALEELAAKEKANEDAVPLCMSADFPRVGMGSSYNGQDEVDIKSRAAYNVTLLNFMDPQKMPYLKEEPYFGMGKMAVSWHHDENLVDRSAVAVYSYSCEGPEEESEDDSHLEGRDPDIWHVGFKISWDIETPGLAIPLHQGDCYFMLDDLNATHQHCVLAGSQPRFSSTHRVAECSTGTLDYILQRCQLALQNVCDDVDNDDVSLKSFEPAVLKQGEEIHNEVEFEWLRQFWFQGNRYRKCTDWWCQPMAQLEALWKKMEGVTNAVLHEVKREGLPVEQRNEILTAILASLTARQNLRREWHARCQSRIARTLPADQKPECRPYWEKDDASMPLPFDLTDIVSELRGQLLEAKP

Row | SMILES | inhibition of FTO at 50 μM (FTO [1]) | estimated rate of passive diffusion relative to FB23 [2] | cellular concentration relative to FB23 (MONOMAC6 and NB4 cells) | neurosphere size [3] | potency against FTO relative to MA (FTO [4]) | m6A mRNA levels [5] | size of tumorospheres ([6]; TS576, 20 μM, listed as FTO-04) | size of tumorospheres ([6]; TS576, 30 μM, vs vehicle control) | mechanism of inhibition of FTO (FTO [7]) | size of tumorospheres (GBM-GSC-23) | size of tumorospheres (GBM-6)
1 | Cc1noc(C)c1-c1cc(Cl)c(Nc2ccccc2C(=O)NO)c(Cl)c1 [FB23-2] | little to no inhibition | ~2.5 | 3-10 | – | – | – | – | – | – | – | –
2 | COc1ncc(-c2ccc3nc(N)sc3c2)cn1 [FTO-4, 6-(2-methoxypyrimidin-5-yl)benzo[d]thiazol-2-amine] | – | – | – | without impairing hNSC neurosphere growth; also recorded: no alteration in neurosphere size | approximately 4 | increase m6A mRNA levels significantly compared to DMSO control | inhibits GSC neurospheres formation; also recorded: significantly decrease the size of tumorospheres | significant reduction in size of the tumorospheres | competitive inhibitor; also recorded: competitive mechanism of inhibition | inhibits GSC neurospheres formation; also recorded: significantly decrease the size of tumorospheres | inhibits GSC neurospheres formation; also recorded: significantly decrease the size of tumorospheres

Reference: patent publication US12630527B2, “Broad spectrum anti-cancer compounds” (The Regents of the University of California, priority 2019, dated 2026)
